Experiment [1] concerns the target TEAD1(210-426) binding to YAP(50-100) (Homo sapiens, UniProt P28347). Nature of the experiment: TR-FRET Assay for TEAD1(210-426) Binding to YAP(50-100). As to conditions: His-TEAD 10 nM, YAP-Biotin peptide 50 nM. The gist of the method: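 10 nM His-TEAD1 preincubated 30 min at room temperature with compound (3-fold dilutions, 12 points, 1% DMSO), then 50 nM biotin-YAP peptide added.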
(In general: Time-resolved FRET reads energy transfer from a long-lived donor to a nearby acceptor.)

The subject of experiment [2] is MSTO-211H cells. As to the kind of experiment: Proliferation Assay (CellTiter-Glo Luminescent Cell Viability Assay). Type of experiment: cell-based. As to conditions: Homo sapiens, 96 hours treatment. The essentials:
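MSTO-211H cells, 1,500/well in RPMI 1640 with 10% FBS, plated overnight, then treated 96 h with 9-point 3-fold compound series in duplicate (DMSO below 0.5%). Viability by CellTiter-Glo luminescence; inhibition relative to DMSO wells, IC50 by four-parameter fit.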
In general terms: ATP-based viability assays read luminescence as a measure of living cells.

Some results are limits rather than exact numbers.

In general, IC50 refers to the point on the concentration scale where inhibition reaches its midpoint. High values mean weaker potency, low ones greater potency.

TEAD1(210-426) binding to YAP(50-100), sequence (P28347 209-426): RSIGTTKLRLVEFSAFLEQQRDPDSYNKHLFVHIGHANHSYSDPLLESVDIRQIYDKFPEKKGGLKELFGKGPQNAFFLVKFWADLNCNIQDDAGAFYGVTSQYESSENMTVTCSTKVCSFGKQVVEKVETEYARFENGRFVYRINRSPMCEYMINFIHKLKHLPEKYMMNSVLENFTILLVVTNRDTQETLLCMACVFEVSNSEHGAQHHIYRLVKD

As for `CNc1nccc(Cn2ccc(-c3nn(-c4ccc(C(F)(F)F)cc4)c4nccnc34)cc2=O)n1` [Compound 99, 1-((2-(methylamino)pyrimidin-4-yl)methyl)-4-(1-(4-(trifluoromethyl)phenyl)-1H-pyrazolo[3,4-b]pyrazin-3-yl)pyridin-2(1H)-one], the IC50 in experiment [1] was at most 0.1 µM; in experiment [2], at most 1 µM.
As for `O=c1cc(-c2nn(-c3ccc(C(F)(F)F)cc3)c3nccnc23)ccn1Cc1nccc(O)n1` [Compound 100, 1-((4-hydroxypyrimidin-2-yl)methyl)-4-(1-(4-(trifluoromethyl)phenyl)-1H-pyrazolo[3,4-b]pyrazin-3-yl)pyridin-2(1H)-one], the IC50 in experiment [1] was at most 0.1 µM; in experiment [2] it was at most 1 µM.
Turning to `O=c1cc(-c2nn(-c3ccc(C(F)(F)F)cc3)c3ncccc23)ccn1Cc1nccc(O)n1` [Compound 101, 1-((4-hydroxypyrimidin-2-yl)methyl)-4-(1-(4-(trifluoromethyl)phenyl)-1H-pyrazolo[3,4-b]pyridin-3-yl)pyridin-2(1H)-one], the figures for the IC50 in experiment [1] and in experiment [2] were at most 0.1 µM and at most 1 µM, respectively.
`O=c1cc(-c2nn(-c3ccc(C(F)(F)F)cc3)c3nccnc23)ccn1Cc1ccnc(NCCO)n1` [Compound 102, 1-((2-((2-hydroxyethyl)amino)pyrimidin-4-yl)methyl)-4-(1-(4-(trifluoromethyl)phenyl)-1H-pyrazolo[3,4-b]pyrazin-3-yl)pyridin-2(1H)-one]: the concentration for half-maximal inhibition (IC50) in experiment [1] was at most 0.1 µM; in experiment [2] it was at most 1 µM.
With `CNc1ccnc(Cn2ccc(-c3nn(-c4ccc(C(F)(F)F)cc4)c4nccnc34)cc2=O)n1` [Compound 104, 1-((4-(methylamino)pyrimidin-2-yl)methyl)-4-(1-(4-(trifluoromethyl)phenyl)-1H-pyrazolo[3,4-b]pyrazin-3-yl)pyridin-2(1H)-one], the IC50 in experiment [1] is 0.1 to 1 µM; in experiment [2], at most 1 µM.
Consider `COc1ccnc(Cn2ccc(-c3nn(-c4ccc(C(F)(F)F)cc4)c4nccnc34)cc2=O)n1` [Compound 105, 1-((4-methoxypyrimidin-2-yl)methyl)-4-(1-(4-(trifluoromethyl)phenyl)-1H-pyrazolo[3,4-b]pyrazin-3-yl)pyridin-2(1H)-one], for which the IC50 was 0.1 to 1 µM in experiment [1] and at most 1 µM in experiment [2].
The corresponding values for `CN(CCO)c1nccc(Cn2ccc(-c3nn(-c4ccc(C(F)(F)F)cc4)c4nccnc34)cc2=O)n1` [Compound 106, 1-((2-((2-hydroxyethyl)(methyl)amino)pyrimidin-4-yl)methyl)-4-(1-(4-(trifluoromethyl)phenyl)-1H-pyrazolo[3,4-b]pyrazin-3-yl)pyridin-2(1H)-one] are at most 0.1 µM and at most 1 µM.
The corresponding values for `CN(CCO)c1ccnc(Cn2ccc(-c3nn(-c4ccc(C(F)(F)F)cc4)c4nccnc34)cc2=O)n1` [Compound 107, 1-((4-((2-hydroxyethyl)(methyl)amino)pyrimidin-2-yl)methyl)-4-(1-(4-(trifluoromethyl)phenyl)-1H-pyrazolo[3,4-b]pyrazin-3-yl)pyridin-2(1H)-one] are at most 0.1 µM and at most 1 µM.
Regarding `Nc1nccc(Cn2ccc(-c3nn(-c4ccc(C(F)(F)F)cc4)c4ncccc34)cc2=O)n1` [Compound 109, 1-((2-aminopyrimidin-4-yl)methyl)-4-(1-(4-(trifluoromethyl)phenyl)-1H-pyrazolo[3,4-b]pyridin-3-yl)pyridin-2(1H)-one], the IC50 in experiment [1] was at most 0.1 µM; in experiment [2], at most 1 µM.
The corresponding values for `Nc1ccnc(Cn2ccc(-c3nn(-c4ccc(C(F)(F)F)cc4)c4ncccc34)cc2=O)n1` [Compound 110, 1-((4-aminopyrimidin-2-yl)methyl)-4-(1-(4-(trifluoromethyl)phenyl)-1H-pyrazolo[3,4-b]pyridin-3-yl)pyridin-2(1H)-one] are at most 0.1 µM and at most 1 µM.
Take `Cn1ccc(Cn2ccc(-c3nn(-c4ccc(C(F)(F)F)cc4)c4ncccc34)cc2=O)n1` [Compound 111, 1-((1-methyl-1H-pyrazol-3-yl)methyl)-4-(1-(4-(trifluoromethyl)phenyl)-1H-pyrazolo[3,4-b]pyridin-3-yl)pyridin-2(1H)-one]: the IC50 was at most 0.1 µM in experiment [1] and at most 1 µM in experiment [2].
The corresponding values for `Nc1cc(Cn2ccc(-c3nn(-c4ccc(C(F)(F)F)cc4)c4ncccc34)cc2=O)ccn1` [Compound 112, 1-((2-aminopyridin-4-yl)methyl)-4-(1-(4-(trifluoromethyl)phenyl)-1H-pyrazolo[3,4-b]pyridin-3-yl)pyridin-2(1H)-one] are at most 0.1 µM and at most 1 µM.
With `O=c1cc(-c2nn(-c3ccc(C(F)(F)F)cc3)c3ncccc23)ccn1Cc1ncccn1` [Compound 115, 1-(pyrimidin-2-ylmethyl)-4-(1-(4-(trifluoromethyl)phenyl)-1H-pyrazolo[3,4-b]pyridin-3-yl)pyridin-2(1H)-one], the results for the IC50 in experiment [1] and in experiment [2] were at most 0.1 µM and at most 1 µM, respectively.
Regarding `Nc1nccc(Cn2ccc(-n3nc(-c4ccc(C(F)(F)F)cc4)c4ncccc43)cc2=O)n1` [Compound 118, 1-((2-aminopyrimidin-4-yl)methyl)-4-(3-(4-(trifluoromethyl)phenyl)-1H-pyrazolo[4,3-b]pyridin-1-yl)pyridin-2(1H)-one], the IC50 was at most 0.1 µM in experiment [1] and at most 1 µM in experiment [2].
Consider `Nc1ccnc(Cn2ccc(-n3nc(-c4ccc(C(F)(F)F)cc4)c4ncccc43)cc2=O)n1` [Compound 119, 1-((4-aminopyrimidin-2-yl)methyl)-4-(3-(4-(trifluoromethyl)phenyl)-1H-pyrazolo[4,3-b]pyridin-1-yl)pyridin-2(1H)-one], for which the IC50 in experiment [1] was at most 0.1 µM; in experiment [2], at most 1 µM.
With `O=c1cc(-n2nc(-c3ccc(C(F)(F)F)cc3)c3ncccc32)ccn1Cc1cccnc1` [Compound 120, 1-(pyridin-3-ylmethyl)-4-(3-(4-(trifluoromethyl)phenyl)-1H-pyrazolo[4,3-b]pyridin-1-yl)pyridin-2(1H)-one], the IC50 in experiment [1] was at most 0.1 µM; in experiment [2], at most 1 µM.
For `Nc1cc(Cn2ccc(-n3nc(-c4ccc(C(F)(F)F)cc4)c4ncccc43)cc2=O)ccn1` [Compound 121, 1-((2-aminopyridin-4-yl)methyl)-4-(3-(4-(trifluoromethyl)phenyl)-1H-pyrazolo[4,3-b]pyridin-1-yl)pyridin-2(1H)-one], the IC50 was at most 0.1 µM in experiment [1] and at most 1 µM in experiment [2].
The corresponding values for `CNc1ccnc(Cn2ccc(-c3nc(-c4ccc(C(F)(F)F)cc4)n4ccccc34)cc2=O)n1` [Compound 125, 1-((4-(methylamino)pyrimidin-2-yl)methyl)-4-(3-(4-(trifluoromethyl)phenyl)imidazo[1,5-a]pyridin-1-yl)pyridin-2(1H)-one] are at most 0.1 µM and at most 1 µM.
The corresponding values for `O=c1cc(-c2nn(-c3ccc(C(F)(F)F)cc3)c3ncccc23)ccn1Cc1ccnc(OCCO)n1` [Compound 126, 1-((2-(2-hydroxyethoxy)pyrimidin-4-yl)methyl)-4-(1-(4-(trifluoromethyl)phenyl)-1H-pyrazolo[3,4-b]pyridin-3-yl)pyridin-2(1H)-one] are at most 0.1 µM and at most 1 µM.
The corresponding values for `CNc1nccc(Cn2ccc(-c3nc(-c4ccc(C(F)(F)F)cc4)n4ccccc34)cc2=O)n1` [Compound 127, 1-((2-(methylamino)pyrimidin-4-yl)methyl)-4-(3-(4-(trifluoromethyl)phenyl)imidazo[1,5-a]pyridin-1-yl)pyridin-2(1H)-one] are at most 0.1 µM and at most 1 µM.

For the origin of these results see patent US20250154127A1, “BICYCLIC HETEROARYL COMPOUNDS AND USES THEREOF” (ETERN BIOPHARMA (SHANGHAI) CO., LTD., priority 2022, published 2025).
